Data set [1] can be described thus: cytotoxicity of compounds tested alone against drug-resistant cancer cells. It counts as cell-based. As to conditions: human, MDA-435/LCC-MDR drug-resistant cancer cells, read-out: cytotoxicity IC50, compound alone. The procedure:
Compounds VIB 106 and VIB 122 were tested for their cytotoxicity against drug-resistant cancer cells, both alone, and in combination with paclitaxel.
The treatment consisted of concurrent exposure of MDA-435/LCC-MDR cells to paclitaxel in the presence or absence of the compounds reversing agent (1 μM) for 72 h in vitro. Assessment of cytotoxicity, i.e. cell growth inhibition, was determined according to the methods of Skehan, et al. as discussed in J. Nat. Cancer Inst., 82, 1107,1990. Briefly, cells were plated between 400 and 1200 cells/well in 96 well plates and incubated at 37° C. for 15-18 h prior to drug addiction to allow attachment of cells. Compounds were solubilized in 100% DMSO and further diluted in RPMI-1640 containing 10 mM HEPES. After a 72 h incubation, 100 μl of ice-cold 50% TCA was added to each well and incubated for 1 h at 4° C. Plates were then washed 5 times with tap water to remove TCA, low-molecular weight metabolites and serum proteins. Sulforhodamine B (SRB) (0.4%, 50 μl) was added to each well. Following a five minute incubation at room temperature, plates were rinsed 5 times with 0.1% acetic acid and air dried. Bound dye was solubilized with 10 mM Tris Base (pH 10.5) for 5 min on a gyratory shaker. Optical density was measured at 570 nm. [drawing 4] [drawing 5] [drawing 6] [drawing 7]

For data set [2], the system named is drug-resistant breast cancer cells MDA435/LCC6-MDR. Nature of the data set: cytostatic activity in combination with paclitaxel (SRB cell growth inhibition). The class given is cell-based. Conditions: IC50 of paclitaxel in presence or absence of compound (reversing agent 1 μM), 72 h. The protocol: Following a five minute incubation at room temperature, plates were rinsed 5 times with 0.1% acetic acid and air dried. Bound dye was solubilized with 10 mM Tris Base (pH 10.5) for 5 min on a gyratory shaker.

In general, IC50 refers to the concentration that inhibits the measured activity by half.

As to `CC(C)=CCOc1ccc2c(C)cc(=O)oc2c1C(=O)C=Cc1cccnc1`, the IC50 at 72 h in data set [1] is more than 1000 nM. Consider `CC(=O)O[C@H]1C(=O)[C@@]2(C)[C@H]([C@H](OC(=O)c3ccccc3)[C@]3(O)C[C@H](OC(=O)[C@H](O)[C@@H](NC(=O)c4ccccc4)c4ccccc4)C(C)=C1C3(C)C)[C@]1(OC(C)=O)CO[C@@H]1C[C@@H]2O` [Paclitaxel], for which the IC50 in data set [2] was 426 nM. As to `C=C(C)COc1ccc2c(C)cc(=O)oc2c1C(=O)C=Cc1cccnc1` [VIB 122, 1-[4-Methyl-7-(2-methylallyloxy)coumarin8-yl]-3-(pyridine-3-yl)propen-1-one], the IC50 at 72 h in data set [1] is more than 1000 nM.

Values taken from US6767916B2 (Indena S.p.A., priority 1999, dated 2004).
